Assay results as given in patent US20100152434A1, “Protein Kinase-binding Nucleosides and Associated Methods” (priority 2007, published 2010).

Assays:
Assay in all cases: Ambit kinase phage display ATP-binding-site ligand binding assay
RPS6KA2 = RPS6KA2 (Homo sapiens, UniProt Q15349); settings: read-out: percent inhibition of binding
Excerpt: (§1) This assay is based on ligand-affinity/protein kinase phage display and was employed essentially as described by Fabian et. al [Nature Biotech. […] In this assay, protein kinases are cloned into T7 bacteriophage which express the kinase fusion proteins on the phage capsid. T7 kinase-tagged phage are then screened for binding to ATP-binding-site ligands that have been immobilized on a solid support. Phage are screened for binding to the anchored ligands both in the presence of test compound and in its absence (control). Elution of the bound phage by free ligand (ATP-binding site ligand that is not immobilized on a solid support) followed by determination of the phage titre provides a reliable measure of the ability of test compounds to block binding of target kinases to resin-bound ATP-binding-site ligands.
(§2) T7 kinase-tagged phage strains were grown in parallel in microtiter plates in a proprietary bacterial host derived from E. Coli strain BL21. E. Coli were grown to a log phase, infected with T7 kinase-tagged phage, and incubated while shaking at 32° C. until bacterial lysis (approx. 90 min). Lysates were centrifuged (6,000 g) and filtered (0.2 μm). […] The phage titre of the eluates was measured by quantitative PCR or by plaque assays. […]

CD2 L2 = CD2 L2 (Homo sapiens, UniProt Q9UQ88); settings: read-out: percent inhibition of binding
Excerpt: (§3) In this assay, protein kinases are cloned into T7 bacteriophage which express the kinase fusion proteins on the phage capsid. T7 kinase-tagged phage are then screened for binding to ATP-binding-site ligands that have been immobilized on a solid support. Phage are screened for binding to the anchored ligands both in the presence of test compound and in its absence (control). Elution of the bound phage by free ligand (ATP-binding site ligand that is not immobilized on a solid support) followed by determination of the phage titre provides a reliable measure of the ability of test compounds to block binding of target kinases to resin-bound ATP-binding-site ligands.
(§4) T7 kinase-tagged phage strains were grown in parallel in microtiter plates in a proprietary bacterial host derived from E. Coli strain BL21. E. Coli were grown to a log phase, infected with T7 kinase-tagged phage, and incubated while shaking at 32° C. until bacterial lysis (approx. 90 min). Lysates were centrifuged (6,000 g) and filtered (0.2 μm). Small molecule ATP-binding-site-specific ligands were anchored to solid supports via a two step process beginning with biotin conjugation followed by treatment of the biotin/small molecule conjugate with streptavidin-coated magnetic beads. […] The phage titre of the eluates was measured by quantitative PCR or by plaque assays. […]

ABL1(F317) = settings: 10 μM
Excerpt: as §3, §4

BMPR2 = BMPR2 (Homo sapiens, UniProt Q13873); settings: read-out: percent inhibition of binding
Excerpt: as §1, §2

PIK3CG = PIK3CG (Homo sapiens, UniProt P48736); settings: read-out: percent inhibition of binding
Excerpt: as §1, §2

RPS6KA6(kin.Dom.2) = RPS6KA6(kin.Dom.2) (Homo sapiens, UniProt Q9UK32); settings: read-out: percent inhibition of binding
Excerpt: as §1, §2

CAMKK2 = CAMKK2 (Homo sapiens, UniProt Q96RR4); settings: read-out: percent inhibition of binding
Chain of CAMKK2 (Q96RR4 whole entry): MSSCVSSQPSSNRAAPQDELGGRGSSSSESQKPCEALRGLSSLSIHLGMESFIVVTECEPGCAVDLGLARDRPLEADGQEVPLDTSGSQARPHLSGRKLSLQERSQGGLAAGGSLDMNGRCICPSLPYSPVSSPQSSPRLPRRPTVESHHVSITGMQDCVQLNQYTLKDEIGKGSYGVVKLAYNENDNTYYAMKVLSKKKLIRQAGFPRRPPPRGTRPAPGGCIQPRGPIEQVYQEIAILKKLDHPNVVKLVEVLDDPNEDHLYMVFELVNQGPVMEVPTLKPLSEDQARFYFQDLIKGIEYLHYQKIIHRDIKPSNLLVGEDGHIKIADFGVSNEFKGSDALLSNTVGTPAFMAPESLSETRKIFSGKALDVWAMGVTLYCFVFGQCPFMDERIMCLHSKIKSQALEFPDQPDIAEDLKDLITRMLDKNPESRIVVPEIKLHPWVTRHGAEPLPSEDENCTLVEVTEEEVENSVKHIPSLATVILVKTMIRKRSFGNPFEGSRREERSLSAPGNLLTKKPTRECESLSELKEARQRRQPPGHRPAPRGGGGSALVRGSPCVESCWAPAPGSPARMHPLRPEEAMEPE
Excerpt: as §3, §4

Chain of BMPR2 (Q13873 27-1038): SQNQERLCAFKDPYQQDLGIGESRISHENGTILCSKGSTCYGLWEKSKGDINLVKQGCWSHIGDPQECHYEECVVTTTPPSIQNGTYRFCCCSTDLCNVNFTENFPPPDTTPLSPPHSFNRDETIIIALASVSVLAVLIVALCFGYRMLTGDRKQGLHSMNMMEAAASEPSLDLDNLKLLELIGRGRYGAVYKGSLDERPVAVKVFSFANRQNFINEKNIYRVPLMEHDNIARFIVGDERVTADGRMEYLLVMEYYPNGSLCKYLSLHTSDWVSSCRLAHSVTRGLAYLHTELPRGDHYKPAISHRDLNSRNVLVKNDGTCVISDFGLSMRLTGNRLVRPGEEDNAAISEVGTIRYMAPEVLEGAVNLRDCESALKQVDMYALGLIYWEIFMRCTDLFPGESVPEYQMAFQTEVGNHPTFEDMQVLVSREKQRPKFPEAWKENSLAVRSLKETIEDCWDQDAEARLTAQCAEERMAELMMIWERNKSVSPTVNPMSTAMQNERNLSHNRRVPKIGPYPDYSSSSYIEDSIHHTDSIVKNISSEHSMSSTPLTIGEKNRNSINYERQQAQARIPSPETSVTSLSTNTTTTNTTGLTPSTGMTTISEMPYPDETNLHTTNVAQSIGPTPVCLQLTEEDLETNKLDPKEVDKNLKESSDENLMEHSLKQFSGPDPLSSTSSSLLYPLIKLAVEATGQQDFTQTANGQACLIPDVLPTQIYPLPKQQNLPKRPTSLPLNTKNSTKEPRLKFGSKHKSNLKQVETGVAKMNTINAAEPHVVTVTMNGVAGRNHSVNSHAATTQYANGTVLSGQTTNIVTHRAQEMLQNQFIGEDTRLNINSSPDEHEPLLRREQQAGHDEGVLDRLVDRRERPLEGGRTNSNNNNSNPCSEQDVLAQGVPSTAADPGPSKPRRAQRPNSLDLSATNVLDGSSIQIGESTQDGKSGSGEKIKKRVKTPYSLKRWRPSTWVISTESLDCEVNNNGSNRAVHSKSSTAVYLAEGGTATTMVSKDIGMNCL
Chain of PIK3CG (P48736 whole entry): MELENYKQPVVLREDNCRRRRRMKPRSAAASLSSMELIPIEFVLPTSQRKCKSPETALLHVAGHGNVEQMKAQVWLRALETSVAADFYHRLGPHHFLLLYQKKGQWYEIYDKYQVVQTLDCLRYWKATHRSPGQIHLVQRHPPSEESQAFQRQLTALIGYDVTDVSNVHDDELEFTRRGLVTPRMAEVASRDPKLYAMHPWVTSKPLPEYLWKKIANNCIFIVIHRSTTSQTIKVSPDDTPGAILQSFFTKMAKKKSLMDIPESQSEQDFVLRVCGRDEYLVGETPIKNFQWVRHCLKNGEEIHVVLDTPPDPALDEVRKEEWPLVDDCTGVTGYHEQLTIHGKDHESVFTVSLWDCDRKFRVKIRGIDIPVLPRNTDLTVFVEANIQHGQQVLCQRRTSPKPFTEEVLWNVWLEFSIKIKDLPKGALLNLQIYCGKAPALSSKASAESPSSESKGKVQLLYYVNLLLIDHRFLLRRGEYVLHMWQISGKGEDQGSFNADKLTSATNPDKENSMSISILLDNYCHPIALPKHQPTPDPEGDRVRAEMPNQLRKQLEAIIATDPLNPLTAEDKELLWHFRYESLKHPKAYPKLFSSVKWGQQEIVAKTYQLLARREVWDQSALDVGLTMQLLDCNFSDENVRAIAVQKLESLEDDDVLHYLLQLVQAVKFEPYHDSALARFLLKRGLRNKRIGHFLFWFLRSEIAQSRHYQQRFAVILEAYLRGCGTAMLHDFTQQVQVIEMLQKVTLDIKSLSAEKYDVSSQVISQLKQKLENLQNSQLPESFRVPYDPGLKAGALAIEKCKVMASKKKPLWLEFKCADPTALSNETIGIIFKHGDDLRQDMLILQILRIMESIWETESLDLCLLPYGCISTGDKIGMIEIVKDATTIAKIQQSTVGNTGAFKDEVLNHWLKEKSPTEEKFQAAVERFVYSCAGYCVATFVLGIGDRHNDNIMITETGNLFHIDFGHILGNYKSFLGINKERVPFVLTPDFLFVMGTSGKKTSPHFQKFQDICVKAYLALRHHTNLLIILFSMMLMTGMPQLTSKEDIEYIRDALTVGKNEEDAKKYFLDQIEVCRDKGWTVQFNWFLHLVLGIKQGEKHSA
Chain of RPS6KA2 (Q15349 whole entry): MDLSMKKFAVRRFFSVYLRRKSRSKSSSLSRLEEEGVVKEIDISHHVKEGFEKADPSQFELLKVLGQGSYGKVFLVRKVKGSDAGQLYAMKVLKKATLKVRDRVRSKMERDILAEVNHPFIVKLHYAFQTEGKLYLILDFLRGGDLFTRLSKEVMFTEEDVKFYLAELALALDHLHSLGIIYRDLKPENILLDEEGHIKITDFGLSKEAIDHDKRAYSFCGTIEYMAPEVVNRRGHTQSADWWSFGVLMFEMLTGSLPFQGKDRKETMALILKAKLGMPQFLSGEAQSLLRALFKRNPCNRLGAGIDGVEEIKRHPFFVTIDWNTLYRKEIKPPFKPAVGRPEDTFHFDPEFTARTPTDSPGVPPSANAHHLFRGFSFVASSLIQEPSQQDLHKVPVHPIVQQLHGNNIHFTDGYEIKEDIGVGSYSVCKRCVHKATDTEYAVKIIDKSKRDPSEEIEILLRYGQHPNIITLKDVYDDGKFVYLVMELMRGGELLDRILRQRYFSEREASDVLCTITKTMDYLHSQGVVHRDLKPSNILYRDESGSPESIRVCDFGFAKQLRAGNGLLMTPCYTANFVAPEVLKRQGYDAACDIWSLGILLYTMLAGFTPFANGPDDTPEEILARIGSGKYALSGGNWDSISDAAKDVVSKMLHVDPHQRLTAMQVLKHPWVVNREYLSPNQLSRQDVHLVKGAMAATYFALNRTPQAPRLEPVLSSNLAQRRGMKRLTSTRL
Chain of RPS6KA6(kin.Dom.2) (Q9UK32 426-683 limits assumed): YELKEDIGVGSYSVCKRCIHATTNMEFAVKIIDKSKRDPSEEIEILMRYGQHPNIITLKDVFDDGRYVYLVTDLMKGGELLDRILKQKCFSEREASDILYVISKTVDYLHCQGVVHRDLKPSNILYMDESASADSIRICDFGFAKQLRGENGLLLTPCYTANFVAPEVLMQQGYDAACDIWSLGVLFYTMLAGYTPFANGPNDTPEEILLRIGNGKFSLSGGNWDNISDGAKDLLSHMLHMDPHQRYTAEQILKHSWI
Chain of CD2 L2 (Q9UQ88 whole entry): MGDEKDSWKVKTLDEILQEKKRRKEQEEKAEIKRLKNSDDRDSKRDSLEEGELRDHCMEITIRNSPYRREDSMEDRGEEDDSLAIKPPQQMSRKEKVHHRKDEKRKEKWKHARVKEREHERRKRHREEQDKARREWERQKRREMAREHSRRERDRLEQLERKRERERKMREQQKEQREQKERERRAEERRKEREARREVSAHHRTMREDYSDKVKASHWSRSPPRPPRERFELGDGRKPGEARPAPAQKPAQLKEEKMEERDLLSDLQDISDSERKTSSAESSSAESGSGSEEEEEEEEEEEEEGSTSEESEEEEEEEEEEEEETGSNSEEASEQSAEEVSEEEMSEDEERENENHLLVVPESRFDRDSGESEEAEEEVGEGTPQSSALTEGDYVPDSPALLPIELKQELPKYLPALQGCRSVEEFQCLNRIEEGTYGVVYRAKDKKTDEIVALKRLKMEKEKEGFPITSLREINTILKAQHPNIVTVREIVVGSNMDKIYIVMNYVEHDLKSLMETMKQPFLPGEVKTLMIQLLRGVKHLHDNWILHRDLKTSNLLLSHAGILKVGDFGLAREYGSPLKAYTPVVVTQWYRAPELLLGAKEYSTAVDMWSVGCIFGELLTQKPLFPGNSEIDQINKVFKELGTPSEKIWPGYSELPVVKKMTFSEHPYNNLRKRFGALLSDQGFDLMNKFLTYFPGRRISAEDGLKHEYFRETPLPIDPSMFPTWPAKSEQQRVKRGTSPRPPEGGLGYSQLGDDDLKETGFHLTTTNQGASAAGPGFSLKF

CCOC(=O)C[C@@H]1C(O[Si](C)(C)C(C)(C)C)[C@H](n2cnc3c(NC(=O)Nc4ccccc4)ncnc32)O[C@@H]1CNC(=O)NC (stereo partly shown) [Compound 10]
inhibition at 10 µM (RPS6KA2): 20 to 29% | inhibition at 10 µM (CD2 L2): 20 to 29% | percent inhibition of binding (ABL1(F317)): 20-29% | inhibition at 10 µM (BMPR2): 20 to 29% | inhibition at 10 µM (PIK3CG): 20 to 29% | inhibition at 10 µM (RPS6KA6(kin.Dom.2)): 20 to 29% | inhibition at 10 µM (CAMKK2): 20 to 29%
